Assay results as given in US11045509B2, “Tributyrin compositions and methods therefor” (Compound Solutions, Inc., priority 2019, dated 2021).

Columns and labels:
Assay type in all cases: in vivo, human
[1] = tested on: Firmicutes to Bacteroidetes (F/B) ratio; assay: collective Firmicutes to Bacteroidetes (F/B) ratio in stool before and after 3-week tributyrin study; conditions: three volunteers, 300 mg tributyrin per day for 3 weeks, stool samples POST vs PRE, FIG. 4
Protocol: With reference to FIG. 4, the collective ratio of firmicutes to bacteroidetes (F/B ratio) was measured in the stool samples of the three volunteer subjects before and after taking tributyrin daily for three weeks as described in the Examples. The firmicutes and bacteroidetes are each a phylum of bacteria making up the largest portion of the human gut microbiome. In particular the F/B ratio has been reported to be associated with metabolic factors and cardiorespiratory fitness. Durk et al., 2018, Int J Sport Nutr Exerc Metab, 29, 249-253. Accordingly, the inventors contemplate a method of increasing the F/B ratio in the gut of a mammal with the administration of a tributyrin-containing composition to the mammal at a dosage that effectively increases the F/B ratio in the gut of the mammal. […] As such, contemplated compositions are thought to not only selectively improve gut microflora, but also to enhance nutrient uptake. The inventors recruited three volunteers who were asked to provide some basic anthropometric characteristics and lifestyle habits. All volunteer subjects (2 female and 1 male) were free of chronic disease and reported not having taken an antibiotic within the past six months. Body mass index (kg/m^2) analysis classified two of the subjects as “overweight” (BMI>25<30), and one as obese (BMI>30). […]

[2] = tested on: Bifidobacterium; assay: relative abundance of Bifidobacterium in stool before and after 3-week tributyrin study (16S rRNA); conditions: three volunteers, 300 mg tributyrin per day for 3 weeks, stool sample POST vs PRE, FIG. 1
Description: (§1) The inventors recruited three volunteers who were asked to provide some basic anthropometric characteristics and lifestyle habits. All volunteer subjects (2 female and 1 male) were free of chronic disease and reported not having taken an antibiotic within the past six months. Body mass index (kg/m^2) analysis classified two of the subjects as “overweight” (BMI>25<30), and one as obese (BMI>30). Although activity habits varied, all of the subjects reported weekly participation in light-to-moderate physical activity, and relatively low caffeine intake (<200 mg/day) and alcohol intake (<3 drinks a week). Before the start of the 3-week study, stool samples were collected from each of the 3 volunteers using the commercially available UBiome Explorer kit. The collected stool samples were sent to Ubiome labs (San Francisco, Calif.) where DNA was extracted followed by 16S rRNA gene amplification for bacterial classification. The 3-week study involved each of the volunteers taking 300 milligrams (mg) of tributyrin per day for 3 weeks. Subjects were verbally instructed to maintain usual dietary and physical activity habits throughout the course of the study. At the end of the 3-week period, stool samples were collected following the same protocol, and sent for analysis. […]

[3] = tested on: Lachnospira; assay: relative abundance of Lachnospira in stool before and after 3-week tributyrin study (16S rRNA); conditions: three volunteers, 300 mg tributyrin per day for 3 weeks, stool sample POST vs PRE, FIG. 3
Description: as §1

[4] = tested on: Faecalibacterium; assay: relative abundance of Faecalibacterium in stool before and after 3-week tributyrin study (16S rRNA); conditions: three volunteers, 300 mg tributyrin per day for 3 weeks, stool sample POST vs PRE, FIG. 2
Description: as §1

Question: What does the source list for `CCCC(=O)OCC(COC(=O)CCC)OC(=O)CCC` [tributyrin]?
Answer: increase of collective F/B ratio [1]: approximately 50%; increase in relative abundance of Bifidobacterium [2]: 8,841%; increase in relative abundance of Lachnospira [3]: 114%; increase in relative abundance of Faecalibacterium [4]: 29%
